Data: the SangsterLogP compilation

Legend:
[1] = method code SF-AS, from DOI: 10.1021/jm00326a002, PMID: 14332653
[2] = method code SF-GLC, from DOI: 10.1021/jm00326a002, PMID: 14332653
[3] = method code SF, from DOI: 10.1021/jm00326a002, PMID: 14332653

| SMILES | logP [1] | also measured |
| --- | --- | --- |
| C#Cc1ccccc1 | 2.53 | – |
| CC(=O)Cc1ccccc1 | 1.44 | – |
| COC(=O)CCCc1ccccc1 | 2.77 | – |
| BrCCCc1ccccc1 | 3.72 | – |
| NC(=O)CCCc1ccccc1 | 1.41 | – |
| N#CCCc1ccccc1 | 1.72 | – |
| CCCCSC#N | 2.03 | – |
| C=CCCC(C)=O | 1.02 | – |
| CC(=O)CCC1CC1 | – | logP [2]: 1.5 |
| CC(=O)OCCc1ccccc1 | 2.3 | – |
| c1ccc2ncccc2c1 | 2.03 | – |
| COC(=O)CCc1ccccc1 | 2.32 | – |
| ClCCc1ccccc1 | 2.95 | – |
| CC(=O)CCCc1ccccc1 | 2.42 | – |
| BrCCc1ccccc1 | 3.09 | – |
| COC(=O)CCCCC(C)=O | – | logP [3]: 0.55 |
| COC(=O)Cc1ccccc1 | 1.83 | – |
| FCCCc1ccccc1 | 2.95 | – |
| COC(=O)CCC(C)=O | – | logP [3]: -0.13 |
| N#CCCCc1ccccc1 | 2.21 | – |
| COCCCc1ccccc1 | 2.7 | – |
| NC(=O)CCc1ccccc1 | 0.91 | – |
| CN(C)CCCc1ccccc1 | 2.73 | – |
